Experimental findings from publication PMC6131557, “Selective Cytotoxicity of Dihydroorotate Dehydrogenase Inhibitors to Human Cancer Cells Under Hypoxia and Nutrient-Deprived Conditions” (Frontiers in Pharmacology, 2018) are described below.

Molecules are shown by their SMILES. Read-outs that look alike come from different tables or passages of the source.

Test [1] concerns the target T1, human dihydroorotate dehydrogenase (HsDHODH) (Homo sapiens, UniProt Q02127).
T1 construct: made in house
Description: Inhibition of recombinant human DHODH enzyme activity. It is filed as biochemical. To be noted: for IC50: recombinant human DHODH; for inhibition at 1 µM: at 1,000 nM, read-out: Inhibition of HsDHODH activity (value in parentheses); for fold increase in the IC50 in comparison to 3: HsDHODH IC50 versus compound 3.

The next test addresses T2, Complex II (Bos taurus, UniProt P35720+Q3T189+Q95123).
T2 construct: from tissue; host or cells: bovine mitochondrial fraction / sub-mitochondrial particles
As to the kind of experiment: Succinate:quinone reductase (complex II) activity, bovine mitochondria. It is filed as biochemical.

For the next test, the target named is Complexes I–III. Description: NADH-cytochrome c reductase (complexes I–III) activity, bovine mitochondria. It counts as biochemical. On the procedure: (§1) Recombinant human DHODH was purified, crystallized, and assayed as previously described ([Inaoka et al., 2016]) without modification. Bovine mitochondrial fractions were prepared as previously described ([Kita et al., 1988]) and NADH dehydrogenase (complex I), succinate:quinone reductase (complex II), quinol oxidase (complexes III–IV), NADH-cytochrome c reductase (complexes I–III), and succinate-cytochrome c (complexes II–III) activities were assayed following an established method ([Takamiya et al., 1986]; [Miyadera et al., 2001]; [Matsumoto et al., 2008]; [Kido et al., 2010]; [Nihashi et al., 2017]).

Another test concerns Complex I. Description: NADH dehydrogenase (complex I) activity, bovine mitochondria. It counts as biochemical. To be noted: at 5 μM. On the procedure: as §1
A further test deals with T3, Complex III (Bos taurus, UniProt P00157).
T3 construct: from tissue; host or cells: bovine mitochondrial fraction / sub-mitochondrial particles
As to the kind of experiment: Quinol oxidase (complex III) activity, bovine mitochondria. It is filed as biochemical. The conditions noted are these: ubiquinol oxidase activity.

A further test concerns the target Complex II–III. As to the kind of experiment: Succinate-cytochrome c reductase (complexes II–III) activity, bovine mitochondria. It is filed as biochemical. On the procedure:
as §1

In a further test the test system is DLD-1 cells. Description: Cytotoxicity assay (Cell Counting Kit-8 / WST-8) on DLD-1 cells. It is filed as cell-based, human. To be noted: at higher concentrations (100 μM); Supplementary Figure S7. As for the experimental part: For hypoxia and nutrient-deprived culture conditions, cells were incubated under 1% oxygen in glucose and glutamine-free DMEM (Gibco) without FBS.
DLD-1 or HDF cells were seeded at 2.5 × 10^4 cells/well on a 96-well plate with normal medium, and cultured overnight under normal culture condition. The cells were washed with PBS and the medium was replaced to either normal medium or glucose and glutamine-free DMEM without FBS. Test compounds or DMSO as a control were added to the wells. The cells in normal medium were cultured under normal culture conditions, while cells in nutrient-deprived medium were cultured under hypoxia condition. After 24 or 48 h incubation, the cells were washed with PBS, 100 μl of fresh normal medium, and 10 μl of Cell Counting Kit-8 solution (Donjindo, Japan) was added to each well. After 3 h incubation under normal culture condition, the absorbance was measured at 450 nm using SpectraMax M2e-TUY microplate reader (Molecular Devices). Cell viability of test wells was calculated based on absorbance of control wells containing DMSO according to manufacturer’s protocol.
A general note: Formazan colour is commonly taken as a measure of viable cells.

Where [2] appears, read: purified enzyme fixed at 10 nM, read-out: IC50 (nM), inhibition of human DHODH.

T1 sequence (Q02127 whole entry): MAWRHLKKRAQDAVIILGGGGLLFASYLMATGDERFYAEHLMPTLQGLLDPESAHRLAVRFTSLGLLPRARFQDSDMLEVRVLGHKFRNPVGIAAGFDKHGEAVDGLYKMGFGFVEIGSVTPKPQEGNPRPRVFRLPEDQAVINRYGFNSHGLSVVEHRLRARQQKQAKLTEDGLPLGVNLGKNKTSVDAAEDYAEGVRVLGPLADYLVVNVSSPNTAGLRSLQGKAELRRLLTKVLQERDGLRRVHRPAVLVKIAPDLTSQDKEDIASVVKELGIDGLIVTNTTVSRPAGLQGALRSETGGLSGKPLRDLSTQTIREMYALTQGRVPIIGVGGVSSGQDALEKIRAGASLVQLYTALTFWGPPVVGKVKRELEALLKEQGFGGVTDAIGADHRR
T2 sequence (P31039 45-665 partner limits assumed): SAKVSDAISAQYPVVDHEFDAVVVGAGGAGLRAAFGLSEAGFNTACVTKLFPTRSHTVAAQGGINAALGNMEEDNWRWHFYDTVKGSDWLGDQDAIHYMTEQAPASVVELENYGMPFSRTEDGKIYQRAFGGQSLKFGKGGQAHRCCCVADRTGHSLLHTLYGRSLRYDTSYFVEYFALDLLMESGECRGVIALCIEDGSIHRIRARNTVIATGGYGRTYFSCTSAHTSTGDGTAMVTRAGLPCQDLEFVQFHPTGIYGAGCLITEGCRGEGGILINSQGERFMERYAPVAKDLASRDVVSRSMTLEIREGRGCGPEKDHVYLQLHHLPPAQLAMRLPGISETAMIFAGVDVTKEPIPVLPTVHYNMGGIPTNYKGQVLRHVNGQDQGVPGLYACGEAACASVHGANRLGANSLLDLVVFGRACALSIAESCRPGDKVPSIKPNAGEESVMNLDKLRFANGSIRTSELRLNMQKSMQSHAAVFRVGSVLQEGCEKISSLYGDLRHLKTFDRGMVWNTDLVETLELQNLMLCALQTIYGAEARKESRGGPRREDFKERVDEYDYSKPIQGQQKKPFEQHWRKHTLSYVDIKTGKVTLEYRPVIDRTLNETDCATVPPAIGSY
T2 sequence (Q3T189 29-280): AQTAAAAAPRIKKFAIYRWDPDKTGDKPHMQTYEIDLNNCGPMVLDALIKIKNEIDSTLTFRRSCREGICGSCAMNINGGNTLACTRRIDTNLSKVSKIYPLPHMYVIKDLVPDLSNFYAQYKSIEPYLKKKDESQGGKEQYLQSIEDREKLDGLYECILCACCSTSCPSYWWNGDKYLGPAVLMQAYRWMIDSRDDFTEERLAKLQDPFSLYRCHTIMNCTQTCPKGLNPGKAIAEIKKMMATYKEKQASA
T2 sequence (P35720 30-169): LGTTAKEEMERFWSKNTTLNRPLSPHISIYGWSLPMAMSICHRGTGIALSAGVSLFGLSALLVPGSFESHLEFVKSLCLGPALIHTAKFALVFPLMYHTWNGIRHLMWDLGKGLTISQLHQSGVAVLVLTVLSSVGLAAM
T2 sequence (Q95123 56-158): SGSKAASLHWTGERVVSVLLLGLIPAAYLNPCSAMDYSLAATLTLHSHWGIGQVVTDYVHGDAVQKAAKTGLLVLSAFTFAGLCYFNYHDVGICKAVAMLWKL

The term IC50 denotes the concentration at which inhibition is half-maximal. In the case of `C/C(=C\Cc1c(O)c(Cl)c(C)c(C=O)c1O)CC/C=C(\C)C1CC(=O)C(C)(C)O1` (racemic) [Compound 2, racemic-AF], the 50% inhibitory concentration (IC50) in test [1] (setting [2]) came to 97.4 ± 7.3 nM.

As usually defined, the inhibition is the percentage by which the read-out fell short of the control. Regarding `COc1[nH]c(=O)c(C(=O)[C@@H](C)C[C@H](C)[C@@H](Cl)CCl)c(O)c1OC` [Atpenin A5, reference compound], the inhibition at 5 µM on Complex II was determined as 97 ± 1%; on Complex III, 0%. Moreover, the IC50 is 2.8 ± 0.44 µM on Complexes I–III; greater than 10000 nM in test [1] (IC50 (μM) HsDHODH, Table 6); 0.0063 ± 0.0002 µM at Complex II–III. For the same compound, the “Inhibition (%) Complex I” value with Complex I is listed as 10 ± 2.7%.

For the compound `CC(C)=CCC/C(C)=C/Cc1c(O)c(Cl)c(C)c(C=O)c1O` [Compound 3, colletochlorin B], the IC50 in test [1] (setting [2]) came out at 74.1 ± 22 nM.

Consider `C/C(=C\COC(=O)C(C)(C)C)CC/C(C)=C/Cc1c(O)c(Cl)c(C)c(C=O)c1O` [Compound 11], for which the IC50 in test [1] (setting [2]) is 67.2 ± 2.8 nM.

Take `C/C(=C\CC/C=C/Cc1c(O)c(Cl)c(C)c(C=O)c1O)COC(=O)C(C)(C)C` [Compound 13]: the “fold decrease (IC50 compared to 4)” value in test [1] (HsDHODH IC50 versus compound 4) is reported as “about 3.5 fold”. In addition, in test [1] (setting [2]), the IC50 turned out to be 349 ± 96 nM.

As to `Cc1c(Cl)c(O)c(CCC(C)CCCC(C)COC(=O)C(C)(C)C)c(O)c1C=O` (centres unmarked) [Compound 14], in test [1], the “HsDHODH inhibition activity (in words)” value is “abolished” and the inhibition at 1 µM is 35%. In addition, the IC50 in test [1] (setting [2]) is greater than 1000 nM.

Consider `Cc1c(Cl)c(O)c(CCC(C)CCCCOC(=O)C(C)(C)C)c(O)c1C=O` (centres unmarked) [Compound 16], for which, in test [1], the inhibition at 1 µM was found to be 21%. In addition, the IC50 in test [1] (setting [2]) is greater than 1000 nM.

Consider `CCCCC/C(C)=C/Cc1c(O)c(Cl)c(C)c(C=O)c1O` [Compound 17], for which, in test [1] (setting [2]), the IC50 turned out to be 71.4 ± 2.4 nM.

On to `CCCCCC(C)CCc1c(O)c(Cl)c(C)c(C=O)c1O` (centres unmarked) [Compound 18], for which the inhibition at 1 µM in test [1] is 37%. Besides, in test [1] (setting [2]), the IC50 was greater than 1000 nM.

For the compound `CC(=O)c1c(C)c(Cl)c(O)c(C/C=C(\C)CC/C=C(\C)C2CC(=O)C(C)(C)O2)c1O` (centres unmarked) [Compound 19], in test [1], the “HsDHODH inhibition activity (in words)” value was “lost” and the inhibition at 1 µM was 3%. Moreover, the IC50 in test [1] (setting [2]) is greater than 1000 nM.

With `C/C(=C\Cc1c(O)c(Cl)c(C)c(CO)c1O)CC/C=C(\C)COC(=O)C(C)(C)C` [Compound 20], the IC50 in test [1] (setting [2]) was determined as 3530 nM.

For the compound `COc1c(Cl)c(C)c(C=O)c(O)c1C/C=C(\C)CC/C=C(\C)[C@@H]1CC(=O)C(C)(C)O1` [Compound 21], the inhibition at 1 µM in test [1] was found to be 3%. In test [1] (setting [2]), the IC50 was greater than 1000 nM.

`CC(C)=CCC/C(C)=C/Cc1c(O)cc(C)c(C=O)c1O` [Compound 22, Colletorin B]: in test [1], the “fold increase in the IC50 in comparison to 3” value is greater than 13 fold and the inhibition at 1 µM was determined as 20%. Also, the IC50 in test [1] (setting [2]) is greater than 1000 nM.

On to `CC(C)=CCC/C(C)=C/Cc1c(O)c(Cl)cc(C=O)c1O` [Compound 24], for which, in test [1], the “fold increase in the IC50 in comparison to 3” value is greater than 13 fold and the inhibition at 1 µM came out at 36%. Besides, in test [1] (setting [2]), the IC50 was greater than 1000 nM.

Turning to `C/C(O)=C(\C#N)C(=O)Nc1ccc(C(F)(F)F)cc1` [Compound A771726, teriflunomide, reference compound], in the test with DLD-1 cells, the “effect on DLD-1 under hypoxia/nutrient-deprived conditions (in words)” value is recorded as “specific inhibition under hypoxia/nutrient-deprived condition was observed”.

For the compound `C=C(C)[C@H]1Cc2c(ccc3c2O[C@@H]2COc4cc(OC)c(OC)cc4[C@@H]2C3=O)O1` [Rotenone, reference compound], the values for the inhibition at 5 µM on Complex II and on Complex III were 6.4 ± 7.9% and 1.1 ± 2.8%, respectively. Further, the IC50 on Complexes I–III is 0.0063 ± 0.0001 µM; in test [1] (IC50 (μM) HsDHODH, Table 6), greater than 10000 nM; at Complex II–III, greater than 10 µM. The “Inhibition (%) Complex I” value in the test with Complex I came to 94 ± 1.5%.
